Laboratory results taken from ChEMBL document CHEMBL5346923, “Novel pyridinium cationic pleuromutilin analogues overcoming bacterial multidrug resistance” (Eur J Med Chem, 2023).

Tests used:
[1] = test system: Enterococcus; assay: Antibacterial activity against vancomycin-resistant Enterococcus ATCC 700221 assessed as inhibition of bacterial growth measured after 24 hrs by MH broth based assay; assay type: functional
[2] = test system: Streptococcus hyovaginalis; assay: Antibacterial activity against clinical isolate Streptococcus hyovaginalis harbouring IsaE and optrA gene assessed as inhibition of bacterial growth measured after 24 hrs by MH broth based assay; assay type: functional
[3] = test system: Staphylococcus aureus; assay: Antibacterial activity against clinical isolate multi-drug resistant Staphylococcus aureus sal assessed as reduction in log10 CFU at 6 times of MIC measured after 8 hrs by time-kill assay; assay type: functional
[4] = test system: Staphylococcus aureus; assay: Potency index, ratio of tiamulin MIC to compound […] for antibacterial activity against clinical isolate multi-drug resistant Staphylococcus aureus sal; assay type: functional
[5] = test system: HEK293; assay: Cytotoxicity against HEK293 cells assessed as reduction in cell viability at 7.5 to 1000 ug/ml incubated for 6 hrs by CCK-8 assay; assay type: toxicity, cell-based; settings: human, hek293, 6 h, dose 7.5-1000 µg/ml
[6] = test system: Proteus; assay: Antibacterial activity against Proteus CMCC (B) 49027 assessed as inhibition of bacterial growth measured after 24 hrs by MH broth based assay; assay type: functional
[7] = test system: Streptococcus parasuis; assay: Antibacterial activity against clinical isolate Streptococcus parasuis harbouring InuD gene assessed as inhibition of bacterial growth measured after 24 hrs by MH broth based assay; assay type: functional
[8] = test system: Staphylococcus aureus; assay: Antibacterial activity against Staphylococcus aureus ATCC 29213 assessed as inhibition of bacterial growth measured after 24 hrs by MH broth based assay; assay type: functional
[9] = test system: Aerococcus viridans; assay: Antibacterial activity against clinical isolate Aerococcus viridans harbouring optrA and ErmA gene assessed as inhibition of bacterial growth measured after 24 hrs by MH broth based assay; assay type: functional
[10] = test system: Staphylococcus aureus; assay: Antibacterial activity against clinical isolate Staphylococcus aureus harbouring blaZ gene assessed as inhibition of bacterial growth measured after 24 hrs by MH broth based assay; assay type: functional
[11] = test system: Staphylococcus aureus; assay: Antibacterial activity against clinical isolate Staphylococcus aureus harbouring tet38 gene assessed as inhibition of bacterial growth measured after 24 hrs by MH broth based assay; assay type: functional
[12] = test system: Enterococcus hirae; assay: Antibacterial activity against clinical isolate Enterococcus hirae assessed as inhibition of bacterial growth measured after 24 hrs by MH broth based assay; assay type: functional
[13] = Toxicity in BABL/C mouse assessed as survival rate at 631 mg/kg, po measured upto 14 days; assay type: organism-based; settings: in vivo, time < 14 day
[14] = test system: Escherichia coli; assay: Antibacterial activity against Escherichia coli ATCC 25922 assessed as inhibition of bacterial growth measured after 24 hrs by MH broth based assay; assay type: functional
[15] = test system: Staphylococcus aureus; assay: Antibacterial activity against 2 times of MIC treated methicillin-resistant Staphylococcus aureus […] assessed as post-antibiotic sub-MIC effect by measuring time required for increase in log10 CFU/ml of bacteria at 0.5 times of MIC incubated for 1 hr by MH broth based assay; assay type: functional
[16] = test system: Staphylococcus aureus; assay: Antibacterial activity against 4 times of MIC treated methicillin-resistant Staphylococcus aureus […] assessed as post-antibiotic sub-MIC effect by measuring time required for increase in log10 CFU/ml of bacteria at 0.25 to 0.5 times of MIC incubated for 1 hr by MH broth based assay; assay type: functional
[17] = test system: HepG2; assay: Cytotoxicity against human HepG2 cells assessed as reduction in cell viability at 7.5 to 1000 ug/ml incubated for 6 hrs by CCK-8 assay; assay type: toxicity, cell-based; settings: hepg2, 6 h, dose 7.5-1000 µg/ml
[18] = test system: Staphylococcus aureus; assay: Antibacterial activity against multi-drug resistant Staphylococcus aureus sa1 infected in ip dosed BABL/C mouse assessed as survival rate measured upto 7 days; assay type: functional; settings: sa1, 168 h, time <= 7 day
[19] = test system: Streptococcus parasuis; assay: Antibacterial activity against clinical isolate Streptococcus parasuis harbouring optrA gene assessed as inhibition of bacterial growth measured after 24 hrs by MH broth based assay; assay type: functional
[20] = test system: Staphylococcus aureus; assay: Antibacterial activity against clinical isolate Staphylococcus aureus harbouring ArlS, norA and MgrA gene assessed as inhibition of bacterial growth measured after 24 hrs by MH broth based assay; assay type: functional
[21] = Hemolytic activity in rabbit RBC at 200 ug/ml incubated for 5 mins by absorbance based analysis; assay type: toxicity, cell-based, Oryctolagus cuniculus, Erythrocyte; settings: rabbit red blood cells (erythrocytes), at 200 µg/mL, read-out: Activity
[22] = test system: Staphylococcus aureus; assay: Antibacterial activity against methicillin-resistant Staphylococcus aureus […] assessed as post antibacterial effect by measuring time required for increase in log10 CFU/ml of bacteria at 4 times of MIC incubated for 1 hr by MH broth based assay; assay type: functional

**Q.** With `C=C[C@]1(C)C[C@@H](OC(=O)CSc2cc[n+](CCCCCCC)cc2)[C@]2(C)[C@H](C)CC[C@]3(CCC(=O)[C@H]32)[C@@H](C)[C@@H]1O.[I-]` as the molecule, how does the MIC [1] read?
**A.** 4 µg/mL

**Q.** What about the MIC [2] of the same molecule?
**A.** 32 µg/mL

**Q.** And the Activity [3]?
**A.** 2 log10CFU/ml

**Q.** What about the Ratio [4] of the same molecule?
**A.** 96

**Q.** What about the Activity [5] of the same molecule?
**A.** Non-Toxic

**Q.** What about the MIC [6] of the same molecule?
**A.** 32 µg/mL

**Q.** What about the MIC [7] of the same molecule?
**A.** 16 µg/mL

**Q.** What about the MIC [8] of the same molecule?
**A.** 0.063 µg/mL

**Q.** And the MIC [9]?
**A.** 2 µg/mL

**Q.** What about the MIC [10] of the same molecule?
**A.** 0.063 µg/mL

**Q.** What about the MIC [11] of the same molecule?
**A.** 0.125 µg/mL

**Q.** And the MIC [12]?
**A.** 0.25 µg/mL

**Q.** And the survival at 336 h [13]?
**A.** 80%

**Q.** And the MIC [14]?
**A.** 32 µg/mL

**Q.** What about the Time [15] of the same molecule?
**A.** ~2.7 h

**Q.** And the Time [16]?
**A.** 2.75 h

**Q.** And the Activity [17]?
**A.** Non-Toxic

**Q.** And the ED50 [18]?
**A.** 5.68 mg/kg

**Q.** And the MIC [19]?
**A.** 16 µg/mL

**Q.** And the MIC [20]?
**A.** 0.063 µg/mL

**Q.** And the hemolysis at 5 min, 200 ug/ml [21]?
**A.** < 14%

**Q.** And the Time [22]?
**A.** 2.56 h
